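Cultured in 96-well plates, cells were exposed to test compound for 48 hours across five concentrations. Definition used: TGI = concentration required for complete inhibition of growth.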
What was measured:
Assay in all cases: growth of human tumour cells (NCI), 48 h
HCC-2998 colon = test system: HCC-2998 colon
NCI-H23 lung = test system: NCI-H23 lung
MDA-MB-231 breast = test system: MDA-MB-231 breast
BT-549 breast = test system: BT-549 breast
SF-268 CNS = test system: SF-268 CNS
HOP-62 NSCLC = test system: HOP-62 NSCLC
SK-OV-3 ovarian = test system: SK-OV-3 ovarian
786-0 renal = test system: 786-0 renal
SNB-75 CNS = test system: SNB-75 CNS
EKVX NSCLC = test system: EKVX NSCLC
ACHN renal = test system: ACHN renal
NCI-H522 lung = test system: NCI-H522 lung
SK-MEL-5 melanoma = test system: SK-MEL-5 melanoma
HOP-92 NSCLC = test system: HOP-92 NSCLC
UACC-62 melanoma = test system: UACC-62 melanoma
CAKI-1 renal = test system: CAKI-1 renal
OVCAR-5 ovarian = test system: OVCAR-5 ovarian
K-562 leukemia = test system: K-562 leukemia
LOX IMVI melanoma = test system: LOX IMVI melanoma
U251 CNS = test system: U251 CNS
KM12 colon = test system: KM12 colon
SK-MEL-2 melanoma = test system: SK-MEL-2 melanoma
PC-3 prostate = test system: PC-3 prostate
T-47D breast = test system: T-47D breast
HCT-15 colon = test system: HCT-15 colon
M14 melanoma = test system: M14 melanoma
SN12C renal = test system: SN12C renal
MDA-N = test system: MDA-N
OVCAR-4 ovarian = test system: OVCAR-4 ovarian
NCI/ADR-RES ovarian = test system: NCI/ADR-RES ovarian
SK-MEL-28 melanoma = test system: SK-MEL-28 melanoma
NCI-H226 lung = test system: NCI-H226 lung
MCF7 breast = test system: MCF7 breast
SF-295 CNS = test system: SF-295 CNS
RXF 393 renal = test system: RXF 393 renal
OVCAR-8 ovarian = test system: OVCAR-8 ovarian
COLO 205 colon = test system: COLO 205 colon
UACC-257 melanoma = test system: UACC-257 melanoma
OVCAR-3 ovarian = test system: OVCAR-3 ovarian
SNB-19 CNS = test system: SNB-19 CNS
MOLT-4 leukemia = test system: MOLT-4 leukemia
SW-620 colon = test system: SW-620 colon
A549 NSCLC = test system: A549 NSCLC
TK-10 renal = test system: TK-10 renal
MDA-MB-435 = test system: MDA-MB-435
UO-31 renal = test system: UO-31 renal
CCRF-CEM leukemia = test system: CCRF-CEM leukemia
DU-145 prostate = test system: DU-145 prostate
IGROV1 ovarian = test system: IGROV1 ovarian
MALME-3M melanoma = test system: MALME-3M melanoma
A498 renal = test system: A498 renal
HT29 colon = test system: HT29 colon
HL-60(TB) leukemia = test system: HL-60(TB) leukemia
HCT-116 colon = test system: HCT-116 colon
SF-539 CNS = test system: SF-539 CNS
NCI-H460 lung = test system: NCI-H460 lung
SR leukemia = test system: SR leukemia

SMILES: COC(=O)C1CCC(=O)N1C(c1ccc(OC)cc1)c1cc(OC)c(OC)c(OC)c1 (centres undefined)
- TGI (HCC-2998 colon): 0.6 µM
- TGI (NCI-H23 lung): > 100 µM
- TGI (MDA-MB-231 breast): 64.9 µM
- TGI (BT-549 breast): > 100 µM
- TGI (SF-268 CNS): > 100 µM
- TGI (HOP-62 NSCLC): > 100 µM
- TGI (SK-OV-3 ovarian): > 100 µM
- TGI (786-0 renal): > 100 µM
- TGI (SNB-75 CNS): > 94.7 µM
- TGI (EKVX NSCLC): > 100 µM
- TGI (ACHN renal): > 100 µM
- TGI (NCI-H522 lung): 0.212 µM
- TGI (SK-MEL-5 melanoma): 3.43 µM
- TGI (HOP-92 NSCLC): > 100 µM
- TGI (UACC-62 melanoma): > 100 µM
- TGI (CAKI-1 renal): > 100 µM
- TGI (OVCAR-5 ovarian): > 100 µM
- TGI (K-562 leukemia): > 75.8 µM
- TGI (LOX IMVI melanoma): > 36.9 µM
- TGI (U251 CNS): > 100 µM
- TGI (KM12 colon): 1.12 µM
- TGI (SK-MEL-2 melanoma): > 100 µM
- TGI (PC-3 prostate): > 37.4 µM
- TGI (T-47D breast): > 100 µM
- TGI (HCT-15 colon): > 100 µM
- TGI (M14 melanoma): 21.6 µM
- TGI (SN12C renal): > 100 µM
- TGI (MDA-N): 1.97 µM
- TGI (OVCAR-4 ovarian): > 100 µM
- TGI (NCI/ADR-RES ovarian): 1.01 µM
- TGI (SK-MEL-28 melanoma): > 100 µM
- TGI (NCI-H226 lung): 2.11 µM
- TGI (MCF7 breast): > 100 µM
- TGI (SF-295 CNS): 0.465 µM
- TGI (RXF 393 renal): 0.361 µM
- TGI (OVCAR-8 ovarian): > 100 µM
- TGI (COLO 205 colon): 0.802 µM
- TGI (UACC-257 melanoma): > 100 µM
- TGI (OVCAR-3 ovarian): 0.597 µM
- TGI (SNB-19 CNS): > 100 µM
- TGI (MOLT-4 leukemia): > 61.1 µM
- TGI (SW-620 colon): > 100 µM
- TGI (A549 NSCLC): > 100 µM
- TGI (TK-10 renal): > 100 µM
- TGI (MDA-MB-435): 0.243 µM
- TGI (UO-31 renal): > 100 µM
- TGI (CCRF-CEM leukemia): > 100 µM
- TGI (DU-145 prostate): 0.771 µM

SMILES: NC(=O)CC1OC(=O)Cc2cc3c(c(O)c21)C(=O)c1c(O)cccc1C3=O (centres undefined)
- TGI (HCC-2998 colon): > 100 µM
- TGI (NCI-H23 lung): > 100 µM
- TGI (MDA-MB-231 breast): > 100 µM
- TGI (BT-549 breast): > 100 µM
- TGI (SK-OV-3 ovarian): > 100 µM
- TGI (786-0 renal): > 100 µM
- TGI (EKVX NSCLC): > 100 µM
- TGI (IGROV1 ovarian): > 100 µM
- TGI (ACHN renal): > 100 µM
- TGI (MALME-3M melanoma): > 100 µM
- TGI (NCI-H522 lung): > 100 µM
- TGI (SK-MEL-5 melanoma): > 100 µM
- TGI (HOP-92 NSCLC): > 100 µM
- TGI (UACC-62 melanoma): > 100 µM
- TGI (CAKI-1 renal): > 100 µM
- TGI (OVCAR-5 ovarian): > 100 µM
- TGI (K-562 leukemia): > 100 µM
- TGI (LOX IMVI melanoma): > 100 µM
- TGI (U251 CNS): > 100 µM
- TGI (A498 renal): > 100 µM
- TGI (SK-MEL-2 melanoma): > 100 µM
- TGI (PC-3 prostate): > 100 µM
- TGI (T-47D breast): > 100 µM
- TGI (HCT-15 colon): > 100 µM
- TGI (M14 melanoma): > 100 µM
- TGI (SN12C renal): > 100 µM
- TGI (MDA-N): > 100 µM
- TGI (OVCAR-4 ovarian): > 100 µM
- TGI (HT29 colon): > 100 µM
- TGI (NCI/ADR-RES ovarian): > 100 µM
- TGI (SK-MEL-28 melanoma): > 100 µM
- TGI (NCI-H226 lung): > 100 µM
- TGI (MCF7 breast): > 100 µM
- TGI (SF-295 CNS): > 100 µM
- TGI (HL-60(TB) leukemia): > 100 µM
- TGI (HCT-116 colon): > 100 µM
- TGI (OVCAR-8 ovarian): > 100 µM
- TGI (COLO 205 colon): > 100 µM
- TGI (SF-539 CNS): > 100 µM
- TGI (UACC-257 melanoma): > 100 µM
- TGI (SNB-19 CNS): > 100 µM
- TGI (NCI-H460 lung): > 100 µM
- TGI (SR leukemia): > 100 µM
- TGI (MOLT-4 leukemia): > 100 µM
- TGI (SW-620 colon): > 100 µM
- TGI (A549 NSCLC): > 100 µM
- TGI (TK-10 renal): > 100 µM
- TGI (MDA-MB-435): > 100 µM
- TGI (UO-31 renal): > 100 µM
- TGI (CCRF-CEM leukemia): > 100 µM
- TGI (DU-145 prostate): > 100 µM

From PubChem BioAssay (NCI)
